In patent US8680282B2, “Cyclic inhibitors of carnitine palmitoyltransferase and treating cancer” (University Health Network, priority 2007, dated 2014):

Key:
MCF-7 = experiment: Cancer cell growth inhibition, SRB assay; format: cell-based, human; parameters: Percentage of Growth Inhibition: scale not given here; settings: SRB at Day 6; for Percentage of Growth Inhibition: MCF-7, at 10 μM, NE = no activity at 10 micromolar; for GI50: Homo sapiens, MCF7, 144 h, MCF-7 (Breast), triplicate
Protocol: (§1) Human cancer cells (MCF-7, H358, H460, HCT116 p53^+/+, HCT116 p53^−/−, A172, PC-3, DU-145 and SW626) were maintained in DMEM medium containing 10% Fetal Bovine Serum (FBS) (Invitrogen, Burlington, ON, Canada) and normal cells HMEC, 184A1, NHBE and PrEC were cultured in MEGM, MEGM plus transferring and cholera toxin, BEGM and PrEGM supplemented with various growth factors (Cambrex, Charles city, Iowa, USA), respectively.
(§2) Compounds of Examples S1 to S30, and 4-(carboxymethyl)-4-(6-(3-hexyloxy)phenoxy)hexanoamido)-1,1-dimethylpiperidinium 2,2,2-trifluoroactate (“Compound A”) were tested in this example. Each of the tested compounds was dissolved in DMSO and further diluted in cell culture medium for the experiments performed. Cells were seeded into 96-well plates with 1,500-5,000 cells/well according to cell growth rate. After 24 h, DMEM medium containing 10% FBS were changed to DMEM containing 3% FBS for cancer cells. The compound was added into the cell culture at the indicated concentrations, and the final concentration of DMSO was adjusted to a final concentration of 0.1%. Cell viability was assessed by Sulforhodamine B (SRB) assay at Day 6.
(§3) Sulforhodamine B (SRB) (Sigma, Oakville, ON, Canada) is a water-soluble dye that binds to the basic amino acids of the cellular proteins. Thus, colorimetric measurement of the bound dye provides an estimate of the total protein mass that is related to the cell number. The cells were fixed in situ by gently aspirating off the culture media and adding 50 ul of cold 10% Tri-chloroacetic Acid (TCA) per well and incubated at 4° C. for 30-60 min. The plates were washed five times with water and allowed to air dry for 5 min. 50 ul of 0.4% (w/v) SRB dissolved in 1% (v/v) acetic acid were added into each well, plates were then incubated at RT for 30 min for staining, washed four times with 1% acetic acid to remove any unbound dye and then allowed to air dry for 5 min. Stain was solubilized with 100 ul of 10 mM Tris pH 10.5 per well. Absorbance was read at 570 nm on a spectrophotometer. GI50 (compound concentration required for 50% of growth inhibition) was calculated using GraphPad Prism 4.0 software (GraphPad Software, Inc., San Diego, Calif., USA). Growth inhibition (%) was determined as percentage of cells remaining compared to the DMSO-treated cells as control.

SW626 = experiment: Cancer cell growth inhibition, SRB assay; format: cell-based, human; parameters: Percentage of Growth Inhibition: scale not given here; settings: SRB at Day 6; for Percentage of Growth Inhibition: SW626, at 10 μM, NE = no activity at 10 micromolar; for GI50: Homo sapiens, 144 h, SW626 (Ovarian), triplicate
Protocol: as §1, §2, §3

SMILES	Percentage of Growth Inhibition (MCF-7) [%]	Percentage of Growth Inhibition (SW626) [%]	GI50 (MCF-7) [µM]	GI50 (SW626) [µM]
O=C(O)CC1(NC(=O)c2ccc(C#Cc3ccccc3)o2)CNC1 [Example S26, 3-(carboxymethyl)-3-(5-(phenylethynyl)furan-2-carboxamido)-azetidinium 2,2,2-trifluoroacetate]	0.1403	0.07378		
C[N+]1(C)CCC(CC(=O)O)(NC(=O)c2ccc(C#Cc3ccccc3)o2)CC1 [Example S6, 4-(Carboxymethyl)-1,1-dimethyl-4-(5-(phenylethynyl)furan-2-carboxamido)-piperidinium 2,2,2-trifluoroacetate]	0.03714	0.2084		
CCCCCCCCc1ccc(NC(=O)NC2(CC(=O)O)CCC[NH+](C)C2)cc1 (centres unmarked) [Example S9, 3-(Carboxymethyl)-1-methyl-3-(3-(4-octylphenyl)ureido)piperidinium 2,2,2-trifluoroacetate]	0.02731	0.02424		
CCCCCc1ccc(S(=O)(=O)NC2(CC(=O)O)C[N+](C)(C)C2)cc1 [Example S29, 3-(carboxymethyl)-1,1-dimethyl-3-(4-pentylphenylsulfonamido)-azetidinium 2,2,2-trifluoroacetate]			44	> 50
CCCCCCCCc1ccc(NC(=O)NC2(CC(=O)O)CC[N+](C)(C)CC2)cc1 [Example S2, 4-(Carboxymethyl)-1,1-dimethyl-4-(3-(4-octylphenyl)ureido)piperidinium 2,2,2-trifluoroacetate]			10	2.5
C[N+]1(C)CCC(CC(=O)O)(NC(=O)c2ccc(CCc3ccccc3)o2)CC1 [Example S5, 4-(Carboxymethyl)-1,1-dimethyl-4-(5-phenethylfuran-2-carboxamido)-piperidinium 2,2,2-trifluoroacetate]	0.02312	0.03032		
CCCCCCCCc1ccc(NS(=O)(=O)NC2(CC(=O)O)CCCN(C)C2)cc1 (centres unmarked) [Example S15, 3-(carboxymethyl)-1-methyl-3-(N-(4-octylphenyl)sulfamoylamino)-piperidinium 2,2,2-trifluoroacetate]			15	33
CCCCCCCCc1ccc(N(C)S(=O)(=O)NC2(CC(=O)O)CCC[N+](C)(C)C2)cc1 (centres unmarked) [Example S30, 3-(carboxymethyl)-1,1-dimethyl-3-(N-methyl-N-(4-octylphenyl)-sulfamoylamino)piperidinium 2,2,2-trifluoroacetate]			3.1	21
CCCCCc1ccc(S(=O)(=O)NC2(CC(=O)O)CCN(C)CC2)cc1 [Example S3, 4-(carboxymethyl)-1-methyl-4-(4-pentylphenylsulfonamido)piperidinium 2,2,2-trifluoroacetate]	0.007318			
CCCCCCCCc1ccc(NC(=O)NC2(CC(=O)O)CC[N+](C)(C)C2)cc1 (centres unmarked) [Example S18, 3-(carboxymethyl)-1,1-dimethyl-3-(3-(4-octylphenyl)ureido)-pyrrolidinium 2,2,2-trifluoroacetate]			5.9	3.9
CCCCCc1ccc(S(=O)(=O)NC2(CC(=O)O)CN(C)C2)cc1 [Example S27, 3-(carboxymethyl)-1-methyl-3-(4-pentylphenylsulfonamido)azetidinium 2,2,2-trifluoroacetate]	0.05347			
CCCCCCCCc1ccc(NS(=O)(=O)NC2(CC(=O)O)CCN(C)CC2)cc1 [Example S7, 4-(carboxymethyl)-1-methyl-4-(N-(4-octylphenyl)sulfamoylamino)-piperidinium 2,2,2-trifluoroacetate]			27	> 50
CCCCCCCCCCc1ccc(C(=O)NC2(CC(=O)O)CC[N+](C)(C)C2)cc1 (centres unmarked) [Example S22, 3-(Carboxymethyl)-3-(4-decylbenzamido)-1,1-dimethylpyrrolidinium 2,2,2-trifluoroacetate]	0.06486	0.2198		
CCCCCc1ccc(S(=O)(=O)NC2(CC(=O)O)CC[N+](C)(C)C2)cc1 (centres unmarked) [Example S20, 3-(carboxymethyl)-1,1-dimethyl-3-(4-pentylphenylsulfonamido)-pyrrolidinium 2,2,2-trifluoroacetate]	0.2269	0.07399		
CCCCCCCCc1ccc(NC(=O)NC2(CC(=O)O)CNC2)cc1 [Example S23, 3-(carboxymethyl)-3-(3-(4-octylphenyl)ureido)azetidinium 2,2,2-trifluoroacetate]			26	21
CCCCCCCCCCc1ccc(C(=O)NC2(CC(=O)O)CCN(C)C2)cc1 (centres unmarked) [Example S21, 3-(carboxymethyl)-3-(4-decylbenzamido)-1-methylpyrrolidinium 2,2,2-trifluoroacetate]	0.01838	0.154		
CCCCCCCCc1ccc(NS(=O)(=O)NC2(CC(=O)O)CC[N+](C)(C)CC2)cc1 [Example S8, 4-(carboxymethyl)-1,1-dimethyl-4-(N-(4-octylphenyl)sulfamoylamino)piperidinium 2,2,2-trifluoroacetate]			2	15
CCCCCCCCc1ccc(NC(=O)NC2(CC(=O)O)CCC[N+](C)(C)C2)cc1 (centres unmarked) [Example S10, 3-(carboxymethyl)-1,1-dimethyl-3-(3-(4-octylphenyl)ureido)-piperidinium 2,2,2-trifluoroacetate]			5.1	2.7
CCCCCCCCc1ccc(NS(=O)(=O)NC2(CC(=O)O)CCC[N+](C)(C)C2)cc1 (centres unmarked) [Example S16, 3-(carboxymethyl)-1,1-dimethyl-3-(N-(4-octylphenyl)sulfamoylamino)-piperidinium 2,2,2-trifluoroacetate]			3.9	18
CCCCCCCCc1ccc(NC(=O)NC2(CC(=O)O)C[N+](C)(C)C2)cc1 [Example S24, 3-(Carboxymethyl)-1,1-dimethyl-3-(3-(4-octylphenyl)ureido)azetidinium 2,2,2-trifluoroacetate]			27	63
